Measured values: patent US11175294B2, “Protein composition and methods for analysing microbiota” (UNIVERSITY OF OTTAWA, priority 2016, dated 2021)

How the values were obtained:
[1] = test system: Akkermansia genus species in cultured microbiome; test: RapidAIM assay of an individual microbiome treated with berberine, species-level taxonomic quantification on MetaLab; assay type: cell-based; settings: high concentration vs sample cultured without drug treatment
Text: Developing RapidAIM in a multi-well plate format: microbiota can be inoculated and grown in culture media. Assays, performed in any multiwall format (e.g. 6 well to 96 well plate formats, or any other type of format, for example, using tubes) and can be titrated, examining at each stage whether the yield per well provides sufficient material for downstream analyses. The analysis can be performed using a workflow for metaproteome as described in Zhang et al. “MetaPro-IQ: a universal metaproteomic approach to studying human and mouse gut microbiota”, Microbiome, 2016 Jun. 24:4(1):31, doi: 10.1186/s40168-016-0176-z. The workflow uses the close-to-complete human or mouse gut microbial gene catalog as a database and uses an iterative database search strategy. An example of a high-through put experimental workflow for the RapidAIM has been established based on a 96-well format (FIG. 9). This workflow includes, (A) 96-well based microbiome culturing, and (B) 96-well based metaproteomics analysis.
As an example, RapidAIM was used to assay an individual a microbiome treated with a high, medium or low dose of berberine compared to the sample cultured without drug treatment (FIG. 10). The taxonomic composition at the species level were quantified in each of the cultured microbiome sample on the MetaLab bioinformatics platform.

human microbiota = test: SILAMi-based metaproteomics of microbiota cultured with or without monosaccharides; assay type: cell-based; settings: 2.5 g/L monosaccharide vs non-treated control; for overall effect on the metaproteome: 3,158 quantified proteins
Experimental: Finally, it was tested whether the […] labelled-standard could be used to distinguish the effects of different monosaccharides on the microbiota. It will be understood that monosaccharides are used herein as an example of a compound that may have an effect on the microbiota. However, other compounds that have be introduced to a microbiota sample or to a subject of which a microbiota sample has been obtained, that may impact the microbiota, may be similarly analyzed as described herein. Overall, 18 samples cultured with or without 2.5 g/L of each monosaccharide (N-acetyl glucosamine or GlcNAc, mannose, galactose, fucose, or glucose) were analyzed, by […]-based metaproteomics which led to 3,158 quantified proteins. Two hundred and forty-six protein groups were identified as being differentially abundant as compared to the non-treated control group (Table 4): […]

Akkermansia spp = settings: reported in other literature; cited from earlier work

COc1ccc2cc3[n+](cc2c1OC)CCc1cc2c(cc1-3)OCO2 [Berberine]
abundances of the species originating from the Akkermansia genus [1]: significantly increased

CC(=O)N[C@H]1C(O)O[C@H](CO)[C@@H](O)[C@@H]1O (some centres unmarked) [GlcNAc, N-acetyl glucosamine]
change of GlcNAc degrading proteins (human microbiota): significant increase | change of asparagine synthase (human microbiota): significantly increased | overall effect on the metaproteome (human microbiota): most dramatic alterations of the metaproteome

CN(C)C(=N)N=C(N)N [Metformin]
Akkermansia spp in the gut microbiome (Akkermansia spp): increased

C[C@H](O)[C@@H](O)[C@@H](O)[C@H](O)C=O [fucose]
change of cluster 206, mainly fucose utilization-related proteins (human microbiota): increased only in the fucose-treated microbiota | change of quantified fucose utilizing proteins in the fucose utilization pathway (human microbiota): all of the six quantified fucose utilizing proteins in the fucose utilization pathway were increased | overall effect on the metaproteome (human microbiota): smallest effect on the metaproteome
